Data reported in patent US11021444B2, “Antiviral compounds” (priority 2013, dated 2021).
Read-outs that look alike come from different tables or passages of the source.

Assays:
[1] = system: Respiratory Syncytial Virus (RSV) long strain; test: microbe, parasite or virus in culture; format: cell-based; details: Tables A and B list compounds by EC50 band
Procedure, shortened: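 CPE-reduction format: viability measured colorimetrically with CCK-8 (450 nm, 630 nm reference) after 3-4 h, following 5-day infection at 37 °C, 5% CO2. Cells were HEp-2; inoculum 100 TCID50/well; duplicate 9-point 1/3 series starting at 100 μM or 1 μM.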

[2] = target: recombinant RSV complex (Human respiratory syncytial virus A, UniProt P28887); test: RSV Polymerase Inhibition Assay; format: biochemical
recombinant RSV complex, sequence (P28887 whole entry): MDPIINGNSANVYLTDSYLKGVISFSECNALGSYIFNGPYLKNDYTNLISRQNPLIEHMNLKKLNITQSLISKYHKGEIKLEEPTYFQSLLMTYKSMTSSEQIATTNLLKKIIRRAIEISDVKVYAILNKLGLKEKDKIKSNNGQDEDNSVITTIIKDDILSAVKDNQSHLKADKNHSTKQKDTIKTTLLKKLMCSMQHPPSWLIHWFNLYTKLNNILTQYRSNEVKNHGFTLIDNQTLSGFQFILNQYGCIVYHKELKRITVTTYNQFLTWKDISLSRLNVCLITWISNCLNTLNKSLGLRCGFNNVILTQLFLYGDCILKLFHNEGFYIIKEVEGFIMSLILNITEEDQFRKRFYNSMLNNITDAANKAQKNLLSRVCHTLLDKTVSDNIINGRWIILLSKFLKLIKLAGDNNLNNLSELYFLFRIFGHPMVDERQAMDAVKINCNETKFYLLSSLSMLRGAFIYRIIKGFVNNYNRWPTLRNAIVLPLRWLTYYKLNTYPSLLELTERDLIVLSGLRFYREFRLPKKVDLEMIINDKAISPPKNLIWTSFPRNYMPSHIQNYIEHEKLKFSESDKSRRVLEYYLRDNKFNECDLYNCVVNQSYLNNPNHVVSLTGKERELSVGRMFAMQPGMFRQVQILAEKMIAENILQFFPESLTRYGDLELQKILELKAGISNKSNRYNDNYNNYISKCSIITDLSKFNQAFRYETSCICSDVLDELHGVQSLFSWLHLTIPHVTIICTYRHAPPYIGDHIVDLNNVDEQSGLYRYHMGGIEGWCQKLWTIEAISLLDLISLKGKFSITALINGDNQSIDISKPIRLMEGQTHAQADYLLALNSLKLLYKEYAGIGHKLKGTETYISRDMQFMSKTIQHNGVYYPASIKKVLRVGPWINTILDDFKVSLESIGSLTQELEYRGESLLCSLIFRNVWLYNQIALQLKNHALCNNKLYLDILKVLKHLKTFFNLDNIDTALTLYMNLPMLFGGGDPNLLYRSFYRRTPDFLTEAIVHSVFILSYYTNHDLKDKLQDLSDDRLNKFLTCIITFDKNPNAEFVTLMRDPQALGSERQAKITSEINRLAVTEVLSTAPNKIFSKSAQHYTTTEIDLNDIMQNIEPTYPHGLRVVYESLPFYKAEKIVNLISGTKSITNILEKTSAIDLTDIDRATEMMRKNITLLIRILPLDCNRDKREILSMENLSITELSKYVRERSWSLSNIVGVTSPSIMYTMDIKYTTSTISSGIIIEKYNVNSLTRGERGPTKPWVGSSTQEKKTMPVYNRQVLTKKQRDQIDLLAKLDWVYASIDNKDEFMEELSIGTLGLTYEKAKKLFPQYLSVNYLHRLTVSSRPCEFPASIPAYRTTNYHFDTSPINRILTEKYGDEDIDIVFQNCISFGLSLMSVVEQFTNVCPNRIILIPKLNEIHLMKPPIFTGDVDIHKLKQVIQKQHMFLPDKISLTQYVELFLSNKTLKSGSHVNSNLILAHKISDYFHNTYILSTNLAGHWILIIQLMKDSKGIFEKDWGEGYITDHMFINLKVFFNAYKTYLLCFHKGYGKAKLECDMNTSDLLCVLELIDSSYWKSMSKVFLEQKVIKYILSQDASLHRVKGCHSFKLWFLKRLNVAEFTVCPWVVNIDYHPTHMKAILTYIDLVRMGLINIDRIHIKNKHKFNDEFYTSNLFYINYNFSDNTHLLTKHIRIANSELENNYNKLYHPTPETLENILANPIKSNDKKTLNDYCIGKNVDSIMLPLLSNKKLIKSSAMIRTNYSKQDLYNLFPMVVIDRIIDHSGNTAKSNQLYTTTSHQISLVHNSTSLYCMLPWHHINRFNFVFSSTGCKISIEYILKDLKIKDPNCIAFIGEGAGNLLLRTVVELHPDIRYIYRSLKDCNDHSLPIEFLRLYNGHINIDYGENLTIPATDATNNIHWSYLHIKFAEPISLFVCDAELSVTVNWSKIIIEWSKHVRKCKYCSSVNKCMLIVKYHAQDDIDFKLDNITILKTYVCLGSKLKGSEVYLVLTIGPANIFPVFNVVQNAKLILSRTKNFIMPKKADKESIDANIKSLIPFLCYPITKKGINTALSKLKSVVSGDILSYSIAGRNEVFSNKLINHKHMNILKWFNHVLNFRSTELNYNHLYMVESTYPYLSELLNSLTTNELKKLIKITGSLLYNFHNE
recombinant RSV complex, sequence (P03421 whole entry, further chain): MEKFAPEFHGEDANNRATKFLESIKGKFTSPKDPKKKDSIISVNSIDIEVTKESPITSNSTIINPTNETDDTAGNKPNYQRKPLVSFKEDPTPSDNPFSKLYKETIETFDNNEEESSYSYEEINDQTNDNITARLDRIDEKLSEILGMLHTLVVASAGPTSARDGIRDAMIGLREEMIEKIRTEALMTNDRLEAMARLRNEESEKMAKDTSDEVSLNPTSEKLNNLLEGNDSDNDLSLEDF
Procedure, shortened: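 Inhibition measured as reduced incorporation of radiolabel into RNA products, detected by scintillation counting. Reactions: recombinant RSV complex (10 nM), RNA oligonucleotides, Tris-HCl pH 7.5, 6 mM MgCl2, inhibitor titration, 2 h at 30 °C, EDTA stop.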

[3] = system: RSV replicon; test: microbe, parasite or virus in culture; format: cell-based; details: read-out: EC50, the concentration of the drug required for reducing RSV replicon RNA by 50%
[4] = Cytotoxicity Determination (CCK-8, without addition of virus); format: cell-based; details: human, 50% cytotoxicity concentration (CC50)
Procedure, shortened: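 Cytotoxicity was measured by CCK-8 after 3-4 hours at 37 °C, following 5 days of uninfected exposure at 37 °C and 5% CO2. Compounds ran as duplicate 7-point 1/2 dilutions starting at 100 μM, with 1% final DMSO. HEp-2 cells had been plated at 1,500/well the day before.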

[5] = human respiratory syncytial virus, HEp-2, 120 h, read-out: 50% effective concentration (EC50), HEp-2 cells infected with RSV long strain, 5 days, CCK-8 readout
[6] = human respiratory syncytial virus

SMILES	EC50 [1, 5] [nM]	IC50 [2] [nM]	EC50 [3, 6] [nM]	CC50 at 5 days [4] [µM]	EC50 ([1]; read-out: 50% effective concentration (EC50), HEp-2 cells infected with RSV long strain, 5 days, CCK-8 readout) [nM]	IC50 ([2]; read-out: IC50 (compound concentration at which the enzyme-catalyzed rate was reduced by 50%), 10 nM recombinant RSV complex, 2 h at 30° C., Tables E, F and G list compounds by IC50 band) [nM]	EC50 ([3]; RSV replicon, 395 HeLa or APC126 cells, value given by membership in Table H / Table I) [nM]	EC50 ([1]; human respiratory syncytial virus, 120 h, read-out: 50% effective concentration (EC50), HEp-2 cells infected with RSV long strain, 5 days, CCK-8 readout) [nM]
COc1cc(C(=O)NCC(O)(c2ccc(OC)c(-c3ccc(F)c(Cl)c3)n2)c2cnn(C)n2)ccc1OCCO (stereo not drawn) [Compound 198]	< 1000	< 1000	< 1000	–	–	–	–	–
COc1cc(C(=O)NCC(O)(c2cc3c(c(-c4ccc(F)c(Cl)c4)n2)OCC3(C)NCCN)C(F)(F)F)ccc1OC1CC1 (stereo not drawn) [Compound 499]	< 1000	< 1000	< 1000	–	–	–	–	–
CC(C)(N)c1cc(-c2ccc(F)c(Cl)c2)nc(C(O)(CNC(=O)c2ccc3c(c2)OCCO3)C(F)(F)F)c1 (stereo not drawn) [Compound 273]	< 1000	< 1000	< 1000	–	–	–	–	–
CNC(C)(C)c1cc(-c2ccc(F)c(Cl)c2)nc(C(O)(CNC(=O)c2ccc(OC3CC3)c(OC)c2)C(F)(F)F)c1 (stereo not drawn) [Compound 394]	< 1000	< 1000	< 1000	–	–	–	–	–
COc1cc(C(=O)NCC(O)(c2cc(C(C)(C)O)cc(-c3ccc(F)c(Cl)c3)n2)C(F)(F)F)ccc1OC1CC1 (stereo not drawn) [Compound 386]	–	< 1000	< 1000	10 to 100	–	–	–	–
COc1cc(C(=O)NCC(O)(c2cc3c(c(-c4ccc(CO)cc4)n2)OCC3(C)N)C(F)(F)F)ccc1OCCO (stereo not drawn) [Compound 672]	–	< 10000	< 1000	> 100	–	–	–	–
COc1cc(C(=O)NCC(O)(c2cc(C(C)(C)N)cc(-c3ccc(F)c(Cl)c3)n2)C(F)(F)F)ccc1OCC(=O)O (stereo not drawn) [Compound 578]	–	< 1000	< 1000	10 to 100	–	–	–	–
CC(C)(N)c1cc(-c2ccc(F)c(Cl)c2)nc(C(O)(CNC(=O)c2ccc(OC3CCNC3=O)c(Cl)c2)C(F)(F)F)c1 (stereo not drawn) [Compound 281]	< 1000	< 1000	< 1000	–	–	–	–	–
COc1cc(C(=O)NCC(O)(c2ccc(OC)c(-c3ccc(F)c(Cl)c3)n2)C(F)(F)F)ccc1OC(C)C(N)=O (stereo not drawn) [Compound 338]	< 1000	–	< 1000	10 to 100	–	–	–	–
COc1cc(C(=O)NCC(O)(Cn2cccn2)c2ccc(OC)c(-c3ccc(F)c(Cl)c3)n2)ccc1OCCO (stereo not drawn) [Compound 184]	–	–	–	–	< 1000	< 1000	< 1000	–
COc1cc(C(=O)NCC(O)(c2cc(C(C)(C)N)cc(-c3ccc(F)c(C(F)(F)F)c3)n2)C(F)(F)F)ccc1OC1CC1 (stereo not drawn) [Compound 521]	< 1000	< 1000	< 1000	–	–	–	–	–
COc1cc(C(=O)NCC(O)(c2cc3c(c(-c4ccc(F)c(Cl)c4)n2)OCCC3(C)C)C(F)(F)F)ccc1OC1CC1 (stereo not drawn) [Compound 345]	< 1000	–	< 1000	> 100	–	–	–	–
COc1cc(C(=O)NCC(O)(c2cc(C(C)(C)NCCN)cc(-c3ccc(F)c(Cl)c3)n2)C(F)(F)F)ccc1OC1CC1 (stereo not drawn) [Compound 508]	< 1000	< 1000	< 1000	–	–	–	–	–
COc1ccc(C(O)(CNC(=O)c2cc(OC)c3ncccc3c2)C(F)(F)F)nc1-c1ccc(F)c(Cl)c1 (stereo not drawn) [Compound 339]	< 1000	–	< 1000	10 to 100	–	–	–	–
COc1ccc(C(=O)NCC(O)c2cccc(-c3csc4c(F)cccc34)n2)cc1OC (stereo not drawn) [Compound 106]	–	–	< 1000	10 to 100	–	–	–	1000 to 50000
COc1cc(C(=O)NCC(O)(c2cc(C(C)(C)N)cc(-c3c[nH]c4c(F)cccc34)n2)C(F)(F)F)ccc1OC1CC1 (stereo not drawn) [Compound 519]	< 1000	< 1000	< 1000	–	–	–	–	–
COc1cc(C(=O)NCC(O)(c2cc3c(c(-c4ccc(F)c(Cl)c4)n2)OCCC3(C)C)C(F)(F)F)ccc1OC1CCNC1=O (stereo not drawn) [Compound 348]	< 1000	–	< 1000	10 to 100	–	–	–	–
COc1cc(C(=O)NCC(O)(c2cc3c(c(-c4ccc(F)c(Cl)c4)n2)OCCC3(C)C)C(F)(F)F)ccc1OCC(N)=O (stereo not drawn) [Compound 347]	< 1000	–	< 1000	10 to 100	–	–	–	–
COCCNC(C)(C)c1cc(-c2ccc(F)c(Cl)c2)nc(C(O)(CNC(=O)c2ccc(OC3CC3)c(OC)c2)C(F)(F)F)c1 (stereo not drawn) [Compound 505]	< 1000	< 1000	< 1000	–	–	–	–	–
COc1cc(C(=O)NCC(O)(c2cc(C(C)(C)N)cc(-c3ccc(F)c(Cl)c3)n2)C2CC2)ccc1OC1CC1 (stereo not drawn) [Compound 667]	< 1000	< 1000	< 1000	–	–	–	–	–
